Reference: US20070155783A1, “Substituted cyclohexyl and piperidinyl derivates as melanocortin-4 receptor modulators” (priority 2003, published 2007)

Key:
hMC4-R [1] = target: T1, hMC4-R (Homo sapiens, UniProt P32245); experiment: Functional cellular cAMP assay in HEK293 cells (fluorescence polarization); type: cell-based; conditions: for EC50: HEK293 cells expressing human melanocortin receptor, cAMP production; for % activation functional assay: cAMP produced compared to stimulation with NDP-alpha-MSH
T1 construct: expressed in transfected cells; host or cells: HEK293 cells
T1 sequence (P32245 whole entry): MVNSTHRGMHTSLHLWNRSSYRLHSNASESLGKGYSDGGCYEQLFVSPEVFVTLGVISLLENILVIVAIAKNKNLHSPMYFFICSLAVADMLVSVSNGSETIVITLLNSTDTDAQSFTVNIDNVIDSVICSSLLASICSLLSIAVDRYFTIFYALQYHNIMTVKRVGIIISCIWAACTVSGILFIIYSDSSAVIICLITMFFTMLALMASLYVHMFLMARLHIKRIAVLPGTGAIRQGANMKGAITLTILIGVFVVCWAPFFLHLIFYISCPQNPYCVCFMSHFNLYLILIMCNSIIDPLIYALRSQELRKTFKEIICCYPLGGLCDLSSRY
Protocol: A functional cellular assay, based on competition between unlabeled cAMP and a fixed quantity of fluorescence labeled cAMP for a limited number of binding sites on a cAMP specific antibody, is used to discriminate melanocortin receptor agonists from antagonists by fluorescence polarization.
HEK293 cells expressing one of the human melanocortin receptors are transferred to 384 well microtiter plates, an appropriate amount of cAMP antibody is added, followed by the addition of different concentrations of the test compound to effect cAMP production. Cells are lysed and a fluorescence labeled cAMP conjugate is dispensed. The plate is read on a fluorescence polarization microplate reader and the amount of cAMP produced as a response to a test compound is compared to the production of cAMP resulting from stimulation with NDP-alpha-MSH.
To define antagonistic activity of a test compound, the compound is dispensed at different concentrations to cells stimulated by an appropriate amount of NDP-α-MSH. Inhibition of cAMP production is determined by comparing the inhibition of cAMP production of the test compound to the inhibition of cAMP production by a known inhibitor tested at the same concentrations.

hMC4-R [2] = target: T1, hMC4-R; experiment: Membrane binding assay, competition with fluorescence labeled NDP-alpha-MSH (fluorescence polarization); conditions: HEK293 cell membrane preparations expressing human melanocortin receptor
Protocol: A membrane binding assay is used to identify competitive inhibitors of fluorescence labeled NDP-alpha-MSH binding to HEK293 cell membrane preparations expressing human melanocortin receptors.
The test compound or unlabeled NDP-alpha-MSH is dispensed at varying concentrations to a 384 well microtiter plate. Fluorescence labeled NDP-alpha-MSH is dispensed at a single concentration, followed by addition of membrane preparations. The plate is incubated for 5 h at room temperature.
The degree of fluorescence polarization is determined with a fluorescence polarization microplate reader.

male Wistar rats = experiment: Spontaneous feeding paradigm, food intake in rats; type: in vivo, rat; conditions: 10 mg/kg
Protocol: Food intake in rats is measured after i.p. or p.o. administration of the test compound (see e.g. Chen, A. S. et al. Transgenic Res 2000 April; 9(2):145-54).
3-4 Hours following the onset of the light-phase, individually housed, male Wistar rats (200 -300 g) receive an ip injection or po application of test compound or vehicle in an administration volume of 2 ml/kg. Following the administration of substances (1-30 mg/kg), a pre-weighted amount of normal laboratory chow is placed into the food hopper. Food remaining is measured by hand at 1-2 hour intervals for up to 8 hours. Differences in food intake between test-compound and vehicle-treated rats are evaluated.
Selected Examples of the present invention were active in the rat model at 10 mg/kg after p.o. administration of the test compound using male Wistar rats (n=4-8).

SMILES	EC50 (hMC4-R [1]) [nM]	% activation functional assay (hMC4-R [1])	IC50 (hMC4-R [2]) [nM]	increase in cumulative food intake compared to vehicle (male Wistar rats; 2 hours following administration, p=0.048, n=4) [%]	increase in cumulative food intake compared to vehicle (male Wistar rats; 4 hours following administration, p=0.092, n=4) [%]	increase in cumulative food intake compared to vehicle (male Wistar rats; 7 hours following administration, p=0.047, n=4) [%]
O=C(N[C@H](C=C1CCC(c2ccccc2CN2CCCC2=O)CC1)Cc1ccc(Cl)cc1)[C@H]1Cc2ccccc2CN1 (stereo partly shown) [Example 1]	3300	100%	600	–	–	–
O=C(N[C@@H](C=C1CCC(c2ccccc2CN2CCCC2=O)CC1)Cc1ccc(Cl)cc1)[C@H]1Cc2ccccc2CN1 (stereo partly shown) [Example 2]	300	97%	300	–	–	–
O=C(N[C@H](C=C1CCN(c2ccccc2CN2CCCC2=O)CC1)Cc1ccc(Cl)cc1)c1cc(=O)c2ccccc2o1 [Example 17]	–	no activation	3100	–	–	–
O=C(N[C@@H](C=C1CCC(c2ccccc2CN2CCCC2=O)CC1)Cc1ccc(Cl)cc1)c1cc(=O)c2ccccc2o1 (stereo partly shown) [Example 18]	–	no activation	1000	–	–	–
COc1ccc2oc(C(=O)N[C@@H](C=C3CCC(c4ccccc4CN4CCCC4=O)CC3)Cc3ccc(Cl)cc3)cc(=O)c2c1 (stereo partly shown) [Example 34]	–	–	–	3100	460	151
